Data set [1] is described as follows: Intrinsic solubility of the compound at pH 2 by turbidimetric titration method. Format: physicochemical. To be noted: buffer, read-out: Intrinsic_solubility.
The subject of another data set is HeLa. The data set can be described thus: Cytotoxicity against human HeLa cells by MTT assay. Format: functional, cell-based. (Tetrazolium assays rely on reduction of a dye to a coloured formazan, in cell work by metabolically active cells.)
Data set [2] can be described thus: Aqueous solubility of the compound in phosphate buffered saline at pH 7.4 after 24 hrs by HPLC-UV based shake-flask method. In kind it is physicochemical.
Data set [3] is described as follows: Aqueous solubility of the compound in phosphate buffered saline at pH 6.8 after 24 hrs by HPLC-UV based shake-flask method. In kind it is physicochemical.
Data set [4] in a line: Dissociation constant, pka of the compound by potentiometric titration method. In kind it is physicochemical.
Data set [5] can be described thus: Solubility of the compound in minimal essential medium at 1 to 2 mg after 24 hrs in presence of 10% FCS by HPLC-UV based shake-flask method. In kind it is physicochemical. To be noted: BLD = below limit of detection.
A short description of data set [6]: Solubility of the compound in minimal essential medium at 1 to 2 mg after 24 hrs in absence of 10% FCS by HPLC-UV based shake-flask method. In kind it is physicochemical. To be noted: BLD = below limit of detection.
The nature of data set [7]: Solubility of the compound in water. In kind it is physicochemical. To be noted: buffer.
The nature of data set [8]: Aqueous solubility of the compound in deionized water after 24 hrs by HPLC-UV based shake-flask method. In kind it is physicochemical. To be noted: buffer.
[9] abbreviates: phosphate buffered saline, pH 7.4.
The mark [10] stands for this setting: phosphate buffered saline, pH 6.8.

In brackets after ≈: the same amount, converted by molar mass.

By EC50 is commonly meant the concentration at which the effect is half-maximal. Lower therefore signals higher potency in that assay. What is called thermodynamic solubility is solubility found after equilibrating the solid with the medium. One may read the pKa as the negative logarithm of the acid dissociation constant. Lower therefore signals a stronger acid or weaker base.

Consider `Cl.O=c1c2cc(O)ccc2nc2n1CCc1c-2n(CCCN2CCCCC2)c2ccccc12`, for which the solubility in data set [1] was 15.5 µM. In the data set with HeLa, this molecule came in with an EC50 of 15.4 µM. In addition, the results for the solubility (thermodynamic) at 24 h in data set [2] (setting [9]) and in data set [3] (setting [10]) were 441 µM and 1710 µM, respectively. Besides, the pKa in data set [4] was found to be 8.8.
Turning to `COc1cc2nc3n(c(=O)c2cc1OC)CCc1c-3[nH]c2ccccc12`, the solubility result in data set [5] and in data set [6] was “Bld” throughout. This molecule also yielded a concentration for a half-maximal effect (EC50) with HeLa of 60.8 µM.
For `O=c1c2cc(O)ccc2nc2n1CCc1ccccc1-2`, the EC50 with HeLa stood at 53.9 µM.
`CCN(CC)CCCn1c2c(c3ccccc31)CCn1c-2nc2ccc(O)cc2c1=O.Cl`: in data set [1], the solubility is 53.2 µM. For the same molecule, in the data set on HeLa, the response was half-maximal at 9.8 µM (EC50). Moreover, the solubility (thermodynamic) at 24 h in [2] (setting [9]) stood at 1900 µM; in [3] (setting [10]) it was 7400 µM. The pKa in data set [4] stood at 8.94.
In the data set on HeLa, `O=c1c2cc(Cl)ccc2nc2n1CCc1c-2[nH]c2ccccc12` had an EC50 of 7.2 µM.
In the data set on HeLa, `O=c1c2sc3ncccc3c2nc2n1CCc1c-2[nH]c2ccccc12` registered an EC50 of 22.1 µM.
As to `O=c1c2cc(Cl)ccc2nc2n1CCc1ccccc1-2`, the solubility result in data set [5] and in data set [6] was “Bld” in each case. Further, the EC50 in the data set on HeLa was 20.6 µM.
For the molecule `Cl.O=c1c2cc(OCCCN3CCCCC3)ccc2nc2n1CCc1c-2[nH]c2ccccc12`, the solubility in [1] is 0.21 µM; in data set [5] it was “Bld”; in [6], “Bld”. Moreover, the EC50 with HeLa came to 16.3 µM. In addition, the figures for the thermodynamic solubility at 24 h in data set [2] (setting [9]) and in [3] (setting [10]) were 5.62 µM and 21.8 µM, respectively. In [4], this molecule gave a pKa of 9.36.
With `O=c1c2sc3ccccc3c2nc2n1CCc1c-2[nH]c2ccccc12`, the solubility result in data set [5] and in data set [6] was “Bld” throughout. The molecule also had an EC50 in the data set with HeLa of 8.4 µM.
For `C=C1C(=O)O[C@@H]2C[C@@H](C)[C@@H]3C=CC(=O)[C@@]3(C)[C@@H](O)[C@H]12` [HELENALIN], in the data set with HeLa, the EC50 was 0.7 µM.
Take `O=c1c2cc(O)ccc2nc2n1CCc1c-2[nH]c2ccccc12`: it took 11.3 µM to reach a half-maximal effect in the data set with HeLa (EC50). This EC50 lies about 16-fold higher than the previous one.
Regarding `O=c1c2ccccc2nc2n1CCc1ccccc1-2`, the EC50 in the data set with HeLa was 64.2 µM.
Take `O=c1c2ccccc2nc2n1CCc1c-2[nH]c2ccccc12` [RUTAECARPINE]: the solubility entry is “Bld” in [5], “Bld” in data set [6], 0.033 µM (≈ 9.48 ng/mL) in data set [7] and 0.0328 µM (≈ 9.42 ng/mL) in data set [8]. The molecule also came in with an EC50 in the data set with HeLa of 26.1 µM. Further, the thermodynamic solubility at 24 h is 0.0271 µM (≈ 7.79 ng/mL) in [2] (buffer, pH 7.4, 24 h) and 0.0257 µM (≈ 7.38 ng/mL) in data set [3] (buffer, pH 6.8, 24 h).
Turning to `CCN(CC)CCCOc1ccc2nc3n(c(=O)c2c1)CCc1c-3[nH]c2ccccc12.Cl`, in [1], the solubility is 0.7 µM. Also, a half-maximal response with HeLa (EC50) required 17.1 µM. Besides, the solubility (thermodynamic) at 24 h in data set [2] (setting [9]) is 45.8 µM; in data set [3] (setting [10]), 180 µM. Also, in data set [4], the pKa turned out to be 9.29.

Values taken from ChEMBL document CHEMBL4043261, “Cytotoxic properties of the alkaloid rutaecarpine and its oligocyclic derivatives and chemical modifications to enhance water-solubility” (Bioorg Med Chem Lett, 2017).
